± gives the standard deviation of the averaged measurements.
Tested on: SW872
Assay: relative viability vs DMSO control (72 h) (fraction); higher = more viable cells
Procedure, shortened: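 Percent growth from ATPLite readings, averaged over up to triplicate wells, was used as relative viability. Sarcoma cell lines were seeded into 384-well plates for 80–90% confluence, dosed after 24 h, and kept 72 h at 37 °C, 5% CO2. Data were rescaled to a range where 1 is full and 0 is none.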

| Structure (SMILES) | relative viability (2 pM) | relative viability (5 pM) | relative viability (15 pM) | relative viability (50 pM) | relative viability (0.00014 µM) | relative viability (0.00041 µM) | relative viability (0.0012 µM) | relative viability (0.0037 µM) | relative viability (0.011 µM) | relative viability (200 fM) | relative viability (600 fM) | relative viability (0.00017 µM) | relative viability (0.00051 µM) | relative viability (0.00152 µM) | relative viability (0.00457 µM) | relative viability (0.01372 µM) | relative viability (0.04115 µM) | relative viability (0.1235 µM) | relative viability (0.3704 µM) | relative viability (1.111 µM) | relative viability (3.333 µM) | relative viability (10 µM) |
| --- | --- | --- | --- | --- | --- | --- | --- | --- | --- | --- | --- | --- | --- | --- | --- | --- | --- | --- | --- | --- | --- | --- |
| COc1cc2c(cc1O)CCN[C@]21CS[C@@H]2c3c(OC(C)=O)c(C)c4c(c3[C@H](COC1=O)N1[C@@H]2[C@H]2c3c(cc(C)c(OC)c3O)C[C@@H]([C@@H]1O)N2C)OCO4 [Trabectedin] | 1.045 ± 0.0069 | 0.986 ± 0.05 | 0.835 ± 0.034 | 0.606 ± 0.1 | 0.281 ± 0.028 | 0.158 ± 0.0096 | 0.202 ± 0.01 | 0.245 ± 0.0073 | 0.183 ± 0.0041 | 1.03 ± 0.037 | 1.038 ± 0.0094 | – | – | – | – | – | – | – | – | – | – | – |
| Nc1cc(C(F)(F)F)c(-c2cc(N3CCOCC3)nc(N3CCOCC3)n2)cn1 [Buparlisib] | – | – | – | – | – | – | – | – | – | – | – | 0.994 ± 0.037 | 0.96 ± 0.046 | 0.995 ± 0.031 | 0.958 ± 0.019 | 0.964 ± 0.025 | 0.946 ± 0.055 | 0.901 ± 0.016 | 0.765 ± 0.035 | 0.543 ± 0.021 | 0.249 ± 0.014 | 0.158 ± 0.0092 |
| CC(C)NC(=O)C1CCC(n2c(NC(=O)c3ccc(F)cc3)nc3ccc(CN4CCC(C(C)(C)O)CC4)cc32)CC1 (centres undefined) [Belizatinib] | – | – | – | – | – | – | – | – | – | – | – | 1.08 ± 0.04 | 1.07 ± 0.027 | 1.04 ± 0.052 | 1.05 ± 0.033 | 1.07 ± 0.01 | 1.05 ± 0.024 | 1.01 ± 0.019 | 0.817 ± 0.034 | 0.5729 ± 0.0013 | 0.412 ± 0.021 | 0.274 ± 0.0093 |
| N#CC[C@H](C1CCCC1)n1cc(-c2ncnc3[nH]ccc23)cn1 [Ruxolitinib] | – | – | – | – | – | – | – | – | – | – | – | 1.02 ± 0.032 | 1.048 ± 0.0078 | 1.052 ± 0.009 | 1.01 ± 0.014 | 0.9983 ± 0.0075 | 0.998 ± 0.038 | 0.974 ± 0.046 | 0.954 ± 0.059 | 0.914 ± 0.075 | 0.886 ± 0.041 | 0.729 ± 0.024 |

— the supplement of paper PMC10883282
